# Measured values published in patent US20150099653A1, “PROCESS OF DIAGNOSTIC, PROGNOSTIC AND THERAPEUTIC MONITORING OF SOLID TUMORS” (CENTRE NATIONAL DE LA RECHERCHE SCIENTIFIQUE, priority 2011, published 2015).
# T1: PiT1 (human, UniProt Q8WUM9 1-679)
# T1 construct: whole, on cells
# T1 sequence: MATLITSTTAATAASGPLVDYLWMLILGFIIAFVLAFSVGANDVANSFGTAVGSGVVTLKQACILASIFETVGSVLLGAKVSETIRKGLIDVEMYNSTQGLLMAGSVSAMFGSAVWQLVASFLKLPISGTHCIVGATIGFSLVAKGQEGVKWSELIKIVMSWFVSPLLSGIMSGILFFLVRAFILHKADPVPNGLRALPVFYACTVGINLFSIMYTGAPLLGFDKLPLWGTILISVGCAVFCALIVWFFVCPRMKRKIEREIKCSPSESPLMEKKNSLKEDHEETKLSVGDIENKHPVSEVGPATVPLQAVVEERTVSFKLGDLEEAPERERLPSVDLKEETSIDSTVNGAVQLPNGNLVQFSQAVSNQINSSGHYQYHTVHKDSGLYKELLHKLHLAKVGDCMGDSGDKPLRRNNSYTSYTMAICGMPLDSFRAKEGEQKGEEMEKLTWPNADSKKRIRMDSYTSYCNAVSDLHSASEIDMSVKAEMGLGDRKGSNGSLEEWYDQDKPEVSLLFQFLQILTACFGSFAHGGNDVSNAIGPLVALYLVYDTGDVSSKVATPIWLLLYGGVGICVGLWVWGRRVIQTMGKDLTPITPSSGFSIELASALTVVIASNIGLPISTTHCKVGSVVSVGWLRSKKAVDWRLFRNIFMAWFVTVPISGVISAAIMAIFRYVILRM
# T2: Glut1 (human, UniProt P11166 1-492)
# T2 construct: whole, on cells; also called glucose transporter GLUT-1
# T2 sequence: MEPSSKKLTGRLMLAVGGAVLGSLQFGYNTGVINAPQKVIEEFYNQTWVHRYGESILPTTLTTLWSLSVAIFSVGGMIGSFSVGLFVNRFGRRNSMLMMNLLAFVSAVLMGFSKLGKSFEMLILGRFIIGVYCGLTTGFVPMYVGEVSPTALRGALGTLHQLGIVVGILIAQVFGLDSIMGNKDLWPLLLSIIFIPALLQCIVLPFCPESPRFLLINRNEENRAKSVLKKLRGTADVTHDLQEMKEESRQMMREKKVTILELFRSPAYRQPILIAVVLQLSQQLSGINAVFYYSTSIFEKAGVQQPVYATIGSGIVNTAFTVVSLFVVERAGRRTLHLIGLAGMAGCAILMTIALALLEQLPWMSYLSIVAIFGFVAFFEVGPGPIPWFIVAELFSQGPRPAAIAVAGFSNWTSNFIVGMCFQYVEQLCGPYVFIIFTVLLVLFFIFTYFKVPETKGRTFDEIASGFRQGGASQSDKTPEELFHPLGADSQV
# B1: Ko.RBD.mFC immunoadhesin (KoRV SU receptor binding domain fused to mouse IgG Fc) (Fc fusion)
# chain: NQQHNNPHQPMTLTWQVLSQTGSVVWEKKAVEPPWTWWPSLEPDVCALVAGLESWDIPELTASASQQARPPDSNYEHAYNQITWGTLGCSYPRARTRIARSQFYVCPRDGRSLSEARRCGGLESLYCKEWGCETAGTAYWQPRSSWDLITVGQGHPTGTCERTGWCNPLKIEFTEPGKRFRNWLQGRTWGLRFYVTGHPGVQLTIRLVITSPPPVVVG
# notes: also called KoRV.RBD-Mfc; KoRV.RBD.MFC; not shown: mouse IgG Fc fragment
# B2: H2.RBD.mFC immunoadhesin (HTLV-2 SU receptor binding domain fused to mouse IgG Fc) (Fc fusion)
# chain: QQSRCTLTVGISSYHSSPCSPTQPVCTWNLDLNSLTTDQRLHPPCPNLITYSGFHKTYSLYLFPHWIKKPNRQGLGYYSPSYNDPCSLQCPYLGCQSWTCPYTGPVSSPSWKFHSDVNFTQEVSQVSLRLHFSKCGSSMTLLVDAPGYDPLWFITSEPTQ
# notes: also called HTLV-2.RBD-Mfc; RBD derived from HTLV-2; not shown: mouse IgG Fc fragment
# Legend:
# line coming from HBCx-4A [1] = assay: RBD expression after in vitro cisplatin (MFI, flow cytometry); assay type: cell-based, human
# Procedure: FIG. 16B: PERV-A.RBD • x-axis: time in hours • y-axis: MFI (mean of fluorescent intensity)
# (§1) For metabolite transporters labelling, 200 000 to 500 000 viable cells were incubated at 37° C. in RBD premix consisting in 3 μl of a RBD mouse Fc tagged plus 3 μl of a RBD rabbit Fc tagged diluted in 50 μl of CO2 independent medium and washed once before secondary staining with fluorescent conjugated antibodies against mouse (goat anti-mouse AF488, Cell Signalling Technology) and rabbit (goat anti-rabbit AF647, Cell Signalling Technology). Rat anti-mouse Pan H-2 added in a third step allowed for the discrimination between human and mouse cells.
# [2] = tested on: HBCx-41 in vitro cultured dissociated cells; assay: In vitro treatment of ex vivo cultured dissociated cells with anti-cancer drugs, WST-1 viability; assay type: cell-based, human; conditions: HBCx-41 dissociated cells, incremental concentrations, 72 h incubation
# Procedure: In vitro treatments with anti-cancer drugs were performed in flat bottomed 96 well microplates. Equal number of viable cells (40 000) were distributed in each well and allowed for attachment for 3 days. […] After 72 h incubation in presence or absence of compounds, WST-1 (based on the cleavage of the tetrazolium salt by respiratory mitochondrial enzyme, Roche diagnostic) was added and incubated following manufacturer instructions. Optic density was read on a microplate reader at 450 nm. A sigmoid analytical curve gave the 50% inhibitory concentration (IC50).
# [3] = tested on: breast tumor xenograft (HBCx-4A, HBCx-16, HBCx-8, HBCx-17); assay: Cisplatin treatment in four models of breast tumor xenograft, RBD expression; assay type: in vivo, mouse
# Description: The four models are the followings: HBCx-4A (non-responsive), HBCx-16 (responsive), HBCx-8 (responsive), HBCx-17 (responsive). […] Left histograms (FeLVC.RBD): from left to right HBCx-4A, HBCx-16, HBCx-8, HBCx-17. Right histograms (BLV.RBD): from left to right HBCx-4A, HBCx-16, HBCx-8, HBCx-17.
# line coming from HBCx-4A [4] = assay: Cisplatin dose response kinetic, cell viability (OD 450 nm); assay type: cell-based, human; conditions: HBCx-4A line on plastic
# Procedure: FIG. 16A: cisplatine dose response kinetic
# from top to bottom: white circle: no treatment (no tt), white square: 35 μM, white triangle (top point): 45 μM, white triangle (bottom point): 55 μM, white diamond: 65 μM, black circle: […]
# line coming from HBCx-4A [5] = assay: RBD expression after in vitro everolimus (MESF, flow cytometry); assay type: cell-based, human; conditions: 0, 1, 100, 1000 nM; 6, 24, 72 h
# Procedure: (§2) FIG. 17A to 17H presents the in vitro effect of everolimus on a line coming from HBCx-4A and put on plastic in function of time.
# FIGS. 17B and 17C: 6 hours after everolimus.
# FIGS. 17D and 17E: 24 hours after everolimus.
# FIGS. 17F to 17H: 72 hours after everolimus. […]
# High sensitivity is a challenge in flow cytometry. […] To visualize thin variation of expression level in multiple channel protocol, we need one unique unit, as fluorescence arbitrary units read on the same cytometer from two different fluorophores in their own channel cannot be confronted. Molecule of Equivalent Soluble Fluorochrome (MESF) is given by regression of arbitrary fluorescence measured versus standardisation beads coated with known amounts of same fluorochrome used in cells staining (AF647 and AF488 MESF quantum beads, BangsLab) acting as intra- and interexperiments calibrator. Measured fluorescence depends on lasers power, photomultiplicator tube settings, pH of staining medium. Fluorescence measured is proportional to the number of fluorochromes linked to the antibody used, itself correlated to the number of antibody bound to specific sites. […] For RBDs, quantification of non-specific signal was determined using secondary conjugated antibody alone.
# line coming from HBCx-4A [6] = assay: Everolimus dose response kinetic, WST (OD 450 nm); assay type: cell-based, human
# Procedure: as §2
# FIG. 17A: everolimus dose response kinetic
# from top to bottom: no treatment (nott), black circle: 0.001 μM, white square: 0.1 μM, black triangle: 10 μM, bottom white square: 50 μM.
# At 10 μM, the dose of everolimus is a cytotoxic dose. • x-axis: time in hours • y-axis: WST (OD 450 nm)
# [7] = tested on: breast tumor xenograft (HBCx-3); assay: Everolimus treatment in breast tumor xenograft, RBD expression; assay type: in vivo, mouse; conditions: HBCx-3, 2.5 mg/kg i.p.
# Procedure: FIG. 12 presents the effect of an everolimus treatment (2.5 mg/kg, i.p.—intraperotoneal) in a model of breast tumor xenograft (HBCx-3) known to be responsive to everolimus treatment at short times.
# Mice of example 1 have been used.
# Four RBDs are studied: • Circle: Xeno.RBD • Triangle: Ampho.RBD • Diamond: FeLVC.RBD • Square: RD114.RBD
# The human breast cancer specimens were obtained with informed consent from the patients undergoing surgery. Fresh tumor fragments were grafted into the interscapular fat pad of 8-12 week old female Swiss nude mice, under avertin anaesthesia. Mice were maintained in specific pathogen-free animal housing (Institut Curie, Paris, France) and received estrogen (17 mg/ml) diluted in drinking water. Xenografts appeared at the graft site 2 to 8 months after initial transplantation. They were subsequently transplanted from mouse to mouse and formally established since third in vivo passage (Marangoni, Elisabetta A new model of patient tumor-derived breast cancer xenografts for preclinical assays Clin Cancer Res. 2007 Jul. 1; 13(13):3989-98). All the experiments were performed in accordance with the UKCCCR guidelines about animal ethics in neoplasia research (British Journal of Cancer (2010) 102, 1555-1577). Present experiments were all performed in well-established tumor models and required a minimal tumor size of 600 mm^3 to collect enough cellular material. In all cases, particular attention through careful clinical examination has been paid to ensure that the recipient mice remained in a general good health to avoid as far as possible necrotic tumors. All tumors were aseptically excised from ethically sacrificed mice with autoclaved surgical material. NEDB and culture media w/o FCS are both equivalent for a short period before processing.
# as §1
# [8] = tested on: breast tumor xenograft (HBCx-3); conditions: HBCx-3, short times; cited from earlier work
# PiT1 = biological target: T1, PiT1; assay: flow cytometry, RBD-Fc labelling of viable human breast cancer xenograft cells (HBCx-3, -4A, -8, -24, -30), read out in MESF
# Glut1 = biological target: T2, Glut1; assay: as above
# [9] = 24 and 48 h, both doses (50 and 100 μM)
# [10] = everolimus, HBCx-4A line on plastic
molecule,measurement,setting,value
"N.N.[Cl][Pt][Cl] [cisplatin, Cisplatin]",AmphoMLV.RBD expression at 100 μM compared with 50 μM,line coming from HBCx-4A [1]; 100 μM vs 50 μM,higher than at 50 μM
same,RD114.RBD expression at 100 μM compared with 50 μM,line coming from HBCx-4A [1]; 100 μM vs 50 μM,higher than at 50 μM
same,expression of AmphoMLV.RBD (MFI),line coming from HBCx-4A [1]; [9],increased
same,expression of RD114.RBD (MFI),line coming from HBCx-4A [1]; [9],increased
same,expression of PERV-A.RBD (MFI),"line coming from HBCx-4A [1]; 48 h, both doses (50 and 100 μM)",increased
same,toxicity (cell viability %),[2],dose dependent toxicity
same,response of the model to treatment,"[3]; HBCx-4A, 6 mg/kg i.p.",non-responsive
same,response of the model to treatment,"[3]; HBCx-8, 6 mg/kg i.p.",responsive
same,response of the model to treatment,"[3]; HBCx-16, 6 mg/kg i.p.",responsive
same,response of the model to treatment,"[3]; HBCx-17, 6 mg/kg i.p.",responsive
same,expression of FeLVC.RBD,"[3]; non responsive model (HBCx-4A), 72 h post treatment, 6 mg/kg i.p.",increase
same,expression of BLV.RBD,"[3]; responsive and non responsive models, 72 h post treatment, 6 mg/kg i.p.",no difference
same,expression of FeLVC.RBD,"[3]; responsive model HBCx-16, 72 h post treatment, 6 mg/kg i.p.",decrease
same,cytostatic dose,line coming from HBCx-4A [4],55 µM
"CC(=O)O[C@@]12CO[C@@H]1C[C@H](O)[C@@]1(C)C(=O)[C@H](O)C3=C(C)[C@@H](OC(=O)[C@H](O)[C@@H](NC(=O)OC(C)(C)C)c4ccccc4)C[C@@](O)([C@@H](OC(=O)c4ccccc4)[C@H]21)C3(C)C [docetaxel, Docetaxel]",toxicity (cell viability %),[2],dose dependent toxicity
CO[C@H]1C[C@@H]2CC[C@@H](C)[C@@](O)(O2)C(=O)C(=O)N2CCCC[C@H]2C(=O)O[C@H]([C@H](C)C[C@@H]2CC[C@@H](OCCO)[C@H](OC)C2)CC(=O)[C@H](C)/C=C(\C)[C@@H](O)[C@@H](OC)C(=O)[C@H](C)C[C@H](C)/C=C/C=C/C=C/1C [everolimus],response of RBDs (MESF),line coming from HBCx-4A [5],time and dose dependant
same,effect on the line at 0.001 μM,line coming from HBCx-4A [6]; everolimus 0.001 μM,proliferation of the line
same,cytostatic dose,line coming from HBCx-4A [6]; [10],0.1 µM
same,cytotoxic dose,line coming from HBCx-4A [6]; [10],10 µM
same,variation of Ampho.RBD expression,[7],vary later
same,variation of FeLVC.RBD expression,[7],vary at the beginning of the treatment
same,variation of RD114.RBD expression,[7],higher than the one of Ampho
same,variation of Xeno.RBD expression,[7],vary at the beginning of the treatment
same,expression of RBDs with the treatment,"[7]; Xeno, Ampho, FeLVC, RD114 RBDs",varies significantly
same,response of the model to treatment,[8],responsive
B1,binding result,PiT1,binds
B2,binding result,Glut1,binds
